From PubChem BioAssay (NCI)
Several values for one entry are separate records, joined by “and”; a condition that tells them apart may be missing. Equal entries are not always repeated.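 Method: 48-hour compound exposure of cells in 96-well plates, five concentrations, linear interpolation of endpoints. Abbreviation: GI50, concentration required for 50% inhibition of growth. TGI is the concentration that stops growth completely.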

These compounds were tested on OVCAR-8 ovarian (assay: NCI-60 cell line screen, 48 h).

| Structure (SMILES) | TGI [µM] |
| --- | --- |
| CC1=C(C(=O)Nc2ccccc2)C(c2ccc(N(C)C)cc2)C(C(=O)Nc2ccccc2)=C(C)N1 | > 100 |

The compounds below were run on EKVX NSCLC (assay: NCI-60 cell line screen, 48 h).

| Structure (SMILES) | GI50 | TGI |
| --- | --- | --- |
| COc1cc2c(N3CCN(C(=O)Nc4ccc(OC(C)C)cc4)CC3)ncnc2cc1OCCCN1CCCCC1 | 28.9 µM | > 100 µM |
| c1ccc(-c2[nH]ncc2-c2ccnc(-c3ccc(OCCn4ccnc4)cc3)c2)nc1 | > 25 µM | > 25 µM |
| O=C(OCc1ccc2c(Br)cc(Br)c(O)c2n1)c1cc2ccccc2[nH]1 | 1.46 µM | 3 µM |
| CC(C)(CO)CNC(=O)c1ccc2[nH]c(O)c(N=Nc3ccc(S(N)(=O)=O)cc3)c2c1 | > 25 µM | > 25 µM |
| Cc1cc(O)c2c(c1)C(=O)C=CC2=O | 7.46 µM and 3.6 µM | 20.6 µM and 15.2 µM |
| N#CC1(c2ccc(NC(=O)c3cccnc3NCc3ccncc3)cc2)CCCC1 | 11.8 µM | > 100 µM |
| CCN1C(=S)N(CC)C2C1NC(=S)N2/N=C/C=C/c1ccccc1OC (configuration not stated) | 0.4 µM | > 100 µM |
| Cn1nccc1Nc1nccc(-c2ccn([C@H](CO)c3ccc(Cl)c(F)c3)c(=O)c2)n1 | 22.8 µM | > 100 µM |
| COC(=O)OC1C(O[C@H]2C[C@H]3[C@@H]4CC=C5C[C@@H](O)CC[C@]5(C)[C@H]4CC[C@]3(C)[C@H]2[C@H](C)C(=O)CCC(C)C)OCC(O)C1OC1OCC(O)C(O)C1OC(=O)c1ccc(OC)cc1 (some centres not stated) | 0.0196 µM | 2.55 µM |
| O=C1/C(=C\c2ccccc2)CN(C(=O)CCN2CCCCC2)C/C1=C/c1ccccc1 |  | 10.6 µM |
| O=C1/C(=C/c2ccc(Cl)c(Cl)c2)CN(C(=O)CCN2CCC(=NO)CC2)C/C1=C\c1ccc(Cl)c(Cl)c1 | 1.31 µM | 3.05 µM |
| CCN(CC)CCCNc1ccc(C)c2sc3ccccc3c(=O)c12 | 2.16 µM | 7.65 µM |
| CCNc1nc(O)c(/C=C2\C=Nc3ncccc32)s1 | 16.6 µM | > 100 µM |
| O=C(/C=C/C12c3ccccc3C(c3ccccc31)C1C(=O)NC(=O)C12)c1ccccn1 (configuration not stated) | 1.91 µM | 4.93 µM |
| CC1=C(C(=O)Nc2ccccc2)C(c2ccc(N(C)C)cc2)C(C(=O)Nc2ccccc2)=C(C)N1 |  | > 100 µM |

The compounds below were run on SK-MEL-2 melanoma (assay: NCI-60 cell line screen, 48 h).

| Structure (SMILES) | GI50 [µM] | TGI |
| --- | --- | --- |
| COc1cc2c(N3CCN(C(=O)Nc4ccc(OC(C)C)cc4)CC3)ncnc2cc1OCCCN1CCCCC1 | 15.6 | 32.3 µM |
| c1ccc(-c2[nH]ncc2-c2ccnc(-c3ccc(OCCn4ccnc4)cc3)c2)nc1 | > 25 | > 25 µM |
| O=C(OCc1ccc2c(Br)cc(Br)c(O)c2n1)c1cc2ccccc2[nH]1 | 1.48 | 3.2 µM |
| CC(C)(CO)CNC(=O)c1ccc2[nH]c(O)c(N=Nc3ccc(S(N)(=O)=O)cc3)c2c1 | > 25 | > 25 µM |
| Cc1cc(O)c2c(c1)C(=O)C=CC2=O |  | 36.8 µM and 44.3 µM |
| N#CC1(c2ccc(NC(=O)c3cccnc3NCc3ccncc3)cc2)CCCC1 | 11.9 | 32 µM |
| CCN1C(=S)N(CC)C2C1NC(=S)N2/N=C/C=C/c1ccccc1OC (configuration not stated) | 0.615 | 56.7 µM |
| Cn1nccc1Nc1nccc(-c2ccn([C@H](CO)c3ccc(Cl)c(F)c3)c(=O)c2)n1 | 0.275 | 27.2 µM |
| COC(=O)OC1C(O[C@H]2C[C@H]3[C@@H]4CC=C5C[C@@H](O)CC[C@]5(C)[C@H]4CC[C@]3(C)[C@H]2[C@H](C)C(=O)CCC(C)C)OCC(O)C1OC1OCC(O)C(O)C1OC(=O)c1ccc(OC)cc1 (some centres not stated) | 0.00538 | 0.0855 µM |
| O=C1/C(=C\c2ccccc2)CN(C(=O)CCN2CCCCC2)C/C1=C/c1ccccc1 |  | 4.44 µM |
| O=C1/C(=C/c2ccc(Cl)c(Cl)c2)CN(C(=O)CCN2CCC(=NO)CC2)C/C1=C\c1ccc(Cl)c(Cl)c1 | 2.05 | 4.3 µM |
| CCN(CC)CCCNc1ccc(C)c2sc3ccccc3c(=O)c12 | 1.66 | 3.45 µM |
| CCNc1nc(O)c(/C=C2\C=Nc3ncccc32)s1 | 3.04 | 8.93 µM |
| O=C(/C=C/C12c3ccccc3C(c3ccccc31)C1C(=O)NC(=O)C12)c1ccccn1 (configuration not stated) | 1.76 | 3.95 µM |
| CC1=C(C(=O)Nc2ccccc2)C(c2ccc(N(C)C)cc2)C(C(=O)Nc2ccccc2)=C(C)N1 |  | > 100 µM |

Each compound was assayed on COLO 205 colon (assay: NCI-60 cell line screen, 48 h).

| Structure (SMILES) | GI50 [µM] | TGI |
| --- | --- | --- |
| COc1cc2c(N3CCN(C(=O)Nc4ccc(OC(C)C)cc4)CC3)ncnc2cc1OCCCN1CCCCC1 | 11.9 | 26.5 µM |
| c1ccc(-c2[nH]ncc2-c2ccnc(-c3ccc(OCCn4ccnc4)cc3)c2)nc1 | > 25 | > 25 µM |
| O=C(OCc1ccc2c(Br)cc(Br)c(O)c2n1)c1cc2ccccc2[nH]1 | 0.511 | 1.84 µM |
| CC(C)(CO)CNC(=O)c1ccc2[nH]c(O)c(N=Nc3ccc(S(N)(=O)=O)cc3)c2c1 | > 25 | > 25 µM |
| Cc1cc(O)c2c(c1)C(=O)C=CC2=O |  | 7.97 µM and > 21.2 µM |
| N#CC1(c2ccc(NC(=O)c3cccnc3NCc3ccncc3)cc2)CCCC1 | 7.43 | 33.5 µM |
| CCN1C(=S)N(CC)C2C1NC(=S)N2/N=C/C=C/c1ccccc1OC (configuration not stated) | 0.312 | 1.27 µM |
| Cn1nccc1Nc1nccc(-c2ccn([C@H](CO)c3ccc(Cl)c(F)c3)c(=O)c2)n1 | 0.0649 | 16.7 µM |
| COC(=O)OC1C(O[C@H]2C[C@H]3[C@@H]4CC=C5C[C@@H](O)CC[C@]5(C)[C@H]4CC[C@]3(C)[C@H]2[C@H](C)C(=O)CCC(C)C)OCC(O)C1OC1OCC(O)C(O)C1OC(=O)c1ccc(OC)cc1 (some centres not stated) | 0.034 | 0.253 µM |
| O=C1/C(=C\c2ccccc2)CN(C(=O)CCN2CCCCC2)C/C1=C/c1ccccc1 |  | 3.83 µM |
| O=C1/C(=C/c2ccc(Cl)c(Cl)c2)CN(C(=O)CCN2CCC(=NO)CC2)C/C1=C\c1ccc(Cl)c(Cl)c1 | 0.391 | 1.54 µM |
| CCN(CC)CCCNc1ccc(C)c2sc3ccccc3c(=O)c12 | 0.189 | 0.384 µM |
| CCNc1nc(O)c(/C=C2\C=Nc3ncccc32)s1 | 3.54 | 13 µM |
| O=C(/C=C/C12c3ccccc3C(c3ccccc31)C1C(=O)NC(=O)C12)c1ccccn1 (configuration not stated) | 1.88 | 3.62 µM |
| CC1=C(C(=O)Nc2ccccc2)C(c2ccc(N(C)C)cc2)C(C(=O)Nc2ccccc2)=C(C)N1 |  | 17.3 µM |

These compounds were tested on HS 578T breast (assay: NCI-60 cell line screen, 48 h).

| Structure (SMILES) | GI50 [µM] | TGI |
| --- | --- | --- |
| COc1cc2c(N3CCN(C(=O)Nc4ccc(OC(C)C)cc4)CC3)ncnc2cc1OCCCN1CCCCC1 | 10.4 | 61.1 µM |
| c1ccc(-c2[nH]ncc2-c2ccnc(-c3ccc(OCCn4ccnc4)cc3)c2)nc1 | > 25 | > 25 µM |
| O=C(OCc1ccc2c(Br)cc(Br)c(O)c2n1)c1cc2ccccc2[nH]1 | 1.24 | 3.87 µM |
| CC(C)(CO)CNC(=O)c1ccc2[nH]c(O)c(N=Nc3ccc(S(N)(=O)=O)cc3)c2c1 | > 25 | > 25 µM |
| Cc1cc(O)c2c(c1)C(=O)C=CC2=O |  | 54.6 µM and 64.3 µM |
| N#CC1(c2ccc(NC(=O)c3cccnc3NCc3ccncc3)cc2)CCCC1 | 9.86 | 50.2 µM |
| CCN1C(=S)N(CC)C2C1NC(=S)N2/N=C/C=C/c1ccccc1OC (configuration not stated) | 0.322 | > 100 µM |
| Cn1nccc1Nc1nccc(-c2ccn([C@H](CO)c3ccc(Cl)c(F)c3)c(=O)c2)n1 | 30.8 | > 100 µM |
| COC(=O)OC1C(O[C@H]2C[C@H]3[C@@H]4CC=C5C[C@@H](O)CC[C@]5(C)[C@H]4CC[C@]3(C)[C@H]2[C@H](C)C(=O)CCC(C)C)OCC(O)C1OC1OCC(O)C(O)C1OC(=O)c1ccc(OC)cc1 (some centres not stated) | < 0.00275 | 0.0416 µM |
| O=C1/C(=C\c2ccccc2)CN(C(=O)CCN2CCCCC2)C/C1=C/c1ccccc1 |  | 5.87 µM |
| O=C1/C(=C/c2ccc(Cl)c(Cl)c2)CN(C(=O)CCN2CCC(=NO)CC2)C/C1=C\c1ccc(Cl)c(Cl)c1 | 1.43 | 5.68 µM |
| CCN(CC)CCCNc1ccc(C)c2sc3ccccc3c(=O)c12 | 1.49 | 5.7 µM |
| CCNc1nc(O)c(/C=C2\C=Nc3ncccc32)s1 | 2.95 | 8.29 µM |
| O=C(/C=C/C12c3ccccc3C(c3ccccc31)C1C(=O)NC(=O)C12)c1ccccn1 (configuration not stated) | 3.2 | 23 µM |
| CC1=C(C(=O)Nc2ccccc2)C(c2ccc(N(C)C)cc2)C(C(=O)Nc2ccccc2)=C(C)N1 |  | > 100 µM |

These compounds were tested on SNB-19 CNS (assay: NCI-60 cell line screen, 48 h).

| Structure (SMILES) | GI50 [µM] | TGI |
| --- | --- | --- |
| COc1cc2c(N3CCN(C(=O)Nc4ccc(OC(C)C)cc4)CC3)ncnc2cc1OCCCN1CCCCC1 | 22.2 | > 100 µM |
| c1ccc(-c2[nH]ncc2-c2ccnc(-c3ccc(OCCn4ccnc4)cc3)c2)nc1 | > 25 | > 25 µM |
| O=C(OCc1ccc2c(Br)cc(Br)c(O)c2n1)c1cc2ccccc2[nH]1 | 1.8 | 4.09 µM |
| CC(C)(CO)CNC(=O)c1ccc2[nH]c(O)c(N=Nc3ccc(S(N)(=O)=O)cc3)c2c1 | > 25 | > 25 µM |
| Cc1cc(O)c2c(c1)C(=O)C=CC2=O |  | 46.7 µM and 31.2 µM |
| N#CC1(c2ccc(NC(=O)c3cccnc3NCc3ccncc3)cc2)CCCC1 | 27.7 | > 100 µM |
| CCN1C(=S)N(CC)C2C1NC(=S)N2/N=C/C=C/c1ccccc1OC (configuration not stated) | 0.48 | > 100 µM |
| Cn1nccc1Nc1nccc(-c2ccn([C@H](CO)c3ccc(Cl)c(F)c3)c(=O)c2)n1 | 27.6 | > 100 µM |
| COC(=O)OC1C(O[C@H]2C[C@H]3[C@@H]4CC=C5C[C@@H](O)CC[C@]5(C)[C@H]4CC[C@]3(C)[C@H]2[C@H](C)C(=O)CCC(C)C)OCC(O)C1OC1OCC(O)C(O)C1OC(=O)c1ccc(OC)cc1 (some centres not stated) | 0.0155 | 2.24 µM |
| O=C1/C(=C\c2ccccc2)CN(C(=O)CCN2CCCCC2)C/C1=C/c1ccccc1 |  | 4.57 µM |
| O=C1/C(=C/c2ccc(Cl)c(Cl)c2)CN(C(=O)CCN2CCC(=NO)CC2)C/C1=C\c1ccc(Cl)c(Cl)c1 | 0.599 | 1.8 µM |
| CCN(CC)CCCNc1ccc(C)c2sc3ccccc3c(=O)c12 | 1.03 | 2.71 µM |
| CCNc1nc(O)c(/C=C2\C=Nc3ncccc32)s1 | 3.6 | > 100 µM |
| O=C(/C=C/C12c3ccccc3C(c3ccccc31)C1C(=O)NC(=O)C12)c1ccccn1 (configuration not stated) | 1.53 | 3.22 µM |
| CC1=C(C(=O)Nc2ccccc2)C(c2ccc(N(C)C)cc2)C(C(=O)Nc2ccccc2)=C(C)N1 |  | > 100 µM |
